The source made the active and inactive calls.
Legend:
[1] = target: T1, Low molecular weight phosphotyrosine protein phosphatase (Homo sapiens, UniProt P24666); type: functional; details: read-out: IC50_Mean
T1 sequence (P24666 whole entry): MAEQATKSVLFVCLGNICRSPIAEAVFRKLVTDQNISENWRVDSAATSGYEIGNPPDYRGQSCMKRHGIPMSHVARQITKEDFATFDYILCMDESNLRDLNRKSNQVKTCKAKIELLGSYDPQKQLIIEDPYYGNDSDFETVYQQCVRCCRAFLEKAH

[2] = target: T1, Low molecular weight phosphotyrosine protein phosphatase; type: functional; details: read-out: IC50_Mean; remark: listed apart in the source
HeLa = test: viability loss in HeLa cells – cell-based, ATP luminescence, cherry-pick samples, cytotoxicity control, dose response (AID 687004); type: functional; details: Homo sapiens
[3] = target: 1-phosphatidylinositol 4,5-bisphosphate phosphodiesterase gamma-1 (Homo sapiens, UniProt P19174); test: Counterscreen for inhibitors of phospholipase C isozymes (PLC-B3): Fluorescence-based biochemical high throughput dose response assay to identify inhibitors of phospholipase C isozymes (PLC-gamma1).
[4] = target: 1-phosphatidylinositol 4,5-bisphosphate phosphodiesterase beta-3 (Homo sapiens, UniProt Q01970); test: Fluorescence-based biochemical high throughput dose response assay to identify inhibitors of phospholipase C isozymes (PLC-B3).
[5] = target: T2, Carboxy-terminal domain RNA polymerase II polypeptide A small phosphatase 1 (Homo sapiens, UniProt Q9GZU7); test: CTDSP1 inhibitors, concentration-response, biochemical, absorbance readout, ultra-high-throughput screen actives (AID 540297); type: functional
T2 sequence (Q9GZU7 whole entry): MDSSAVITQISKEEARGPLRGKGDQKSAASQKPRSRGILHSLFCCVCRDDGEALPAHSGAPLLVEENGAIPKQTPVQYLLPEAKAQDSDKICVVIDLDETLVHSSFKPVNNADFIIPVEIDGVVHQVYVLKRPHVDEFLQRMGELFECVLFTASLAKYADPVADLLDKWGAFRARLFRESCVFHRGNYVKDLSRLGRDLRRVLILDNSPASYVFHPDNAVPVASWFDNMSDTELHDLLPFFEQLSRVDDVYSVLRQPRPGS

[6] = general mammalian cell viability loss – inhibitor set, cherry-pick, set 2, cytotoxicity control for miR-122 modulator project, dose response (AID 720697); type: functional, cell-based
[7] = viability loss of HMLE_sh_eGFP cells – cell-based, luminescence, counter-screen for HMLE_sh_ECad selective toxicity project, dose response (AID 463074); type: functional, Homo sapiens;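 also: HMLE human mammary epithelial cells expressing control shRNA against eGFP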
[8] = target: T3, Probable nicotinate-nucleotide adenylyltransferase (Staphylococcus aureus (strain N315), UniProt P65502); type: functional, Staphylococcus aureus subsp. aureus N315;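 as to IC50 Mean: confirmatory dose-response retesting of NadD inhibitor hits first found in an ultra-high-throughput screen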
[9] = Luminescence Cell-Based Dose Retest to Confirm Inhibitors of Cancer Stem Cells. [Related pubchem assays (depositor defined):AID2717, AID2721]; type: functional; details: Homo sapiens
[10] = target: T3, Probable nicotinate-nucleotide adenylyltransferase; type: functional, Staphylococcus aureus subsp. aureus N315; details: read-out: IC50_Mean
Interleukin-8 = target: T4, Interleukin-8 (Homo sapiens, UniProt P10145); test: Dose Response confirmation of uHTS small molecule hits for cystic fibrosis induced NFkb Inhibitors in a PAF-induced IL8 counterscreen.; type: functional; details: read-out: IC50_Mean
T4 sequence (P10145 whole entry): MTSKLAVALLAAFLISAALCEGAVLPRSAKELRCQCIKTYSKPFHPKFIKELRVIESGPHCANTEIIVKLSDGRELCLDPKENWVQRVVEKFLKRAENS

[11] = target: Heat shock protein HSP 90-alpha (Homo sapiens, UniProt P07900); type: functional, organism-based
[12] = A2780 cell killing – plate reader, dry powder samples, cytotoxicity control, dose response (AID 743046); type: functional, cell-based
[13] = OVCAR-3 cell viability loss – plate reader, dry powder samples, PAX8 inhibitor project, dose response (AID 743044); type: functional, cell-based
[14] = OVCAR8 cell viability loss – plate reader, dry powder samples, PAX8 project, dose response (AID 743197); type: functional, cell-based; details: OVCAR-8
Paired box protein Pax-8 = Paired box protein Pax-8 (Homo sapiens, UniProt Q06710); test: PAX8 transcriptional activity inhibition in RMG-I – RMG-I cells, luciferase, cherry-pick, dose response (AID 687027); type: functional, cell-based;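 also: luciferase reporter driven by Pax8 target thyroperoxidase promoter measured by SteadyGlo luminescence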
[15] = general cell-killing toxicity readout – plate reader, dry powder samples, cytotoxicity control for PAX8 inhibitor project, dose response (AID 743021); type: functional, cell-based
[16] = COV434 cell viability loss – plate reader, dry powder, SA7, cytotoxicity control for PAX8 inhibitor project, dose response (AID 743145); type: functional, cell-based
[17] = P. falciparum Dd2 growth inhibitors, dose response, SYBR Green, cherry-picked samples (AID 1159567); type: functional, cell-based
[18] = blockers of HIV-1 ZM109 envelope-driven cell-cell fusion – HeLa effector, CEM target cells, luciferase, cherry-pick, dose response (AID 652058); type: functional, cell-based;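 also: luciferase signal from HIV-1 Env mediated cell-cell fusion of effector and target cells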
[19] = OVCAR4 cell viability loss – plate reader, dry powder, SA11, cytotoxicity control for PAX8 inhibitor project, dose response (AID 743150); type: functional, cell-based; details: OVCAR-4
[20] = blockers of HIV-1 envelope-mediated cell-cell fusion – cherry-pick, dose response (AID 652057); type: functional, cell-based
[21] = inhibitors acting on PAX2 in cells – cell-based, plate reader, dry powder samples, selectivity assay for PAX8 inhibitor project, dose response (AID 743048); type: functional;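 also: HEK293 cells carrying a WT1 promoter luciferase reporter driven by expressed Pax2; potency is for inhibition of Pax2 driven reporter signal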
[22] = Dd2 malaria parasite growth inhibition potency – SYBR Green, dry powder samples, dose response (AID 1159566); type: functional, cell-based;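 also: potency for growth inhibition with lower SYBR green DNA signal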
[23] = toxicity to human hepatoma HepG2 cells – cell-based, cherry-picked samples, cytotoxicity control, dose response (AID 1159577); type: functional
[24] = growth inhibition of yeast DHODH-expressing 3D7 parasites – SYBR Green, dry powder samples, dose response (AID 1159570); type: functional, cell-based;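 also: parasite growth measured after 72 hours of compound exposure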
[25] = growth inhibition of PfATP4-mutant resistant parasites – NITD609-resistant line, SYBR Green, dry powder, dose response (AID 1159571); type: functional, cell-based;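 also: parasites synchronized at ring stage by sorbitol before testing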
[26] = HIV-1 AD8 envelope cell-cell fusion blockers – cherry-pick, dose response (AID 652062); type: functional, cell-based;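 also: luciferase signal from cell-cell fusion driven by HIV-1 clade B AD8 Env; potency is for inhibitors of fusion seen as a drop in luminescence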
[27] = PAX8-dependent cell viability loss – plate reader, dry powder, dose response (AID 743049); type: functional, cell-based
[28] = PAX5 cellular inhibition readout – cell-based, plate reader, dry powder samples, selectivity assay for PAX8 inhibitor project, dose response (AID 743047); type: functional;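 also: HEK293 cells carrying a Pax5 driven CD19 promoter luciferase reporter; potency of inhibitors that lower reporter luminescence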
[29] = NIH3T3 cell viability loss – ATP luminescence, mouse fibroblasts, counter-screen, dose response (AID 2010); type: functional, cell-based;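 also: cells exposed to compound for about 90 hours before reading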
Galanin receptor type 3 = Galanin receptor type 3 (Homo sapiens, UniProt O60755); test: Fluorescence-based cell-based primary high throughput dose response assay to identify antagonists of the Galanin Receptor 3 (GalR3).; type: functional
[30] = Trypanosoma cruzi growth suppression in host cells – NIH3T3 host cells, beta-gal luminescence, confirmation (AID 2044); type: functional, cell-based;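 also: intracellular parasites grown in NIH/3T3 mouse fibroblasts as host cells; luminescent beta-galactosidase reporter signal from transgenic T. cruzi replicating inside host cells; inhibitors lower the luminescence signal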
cells [31] = type: functional, cell-based; details: HEK-CNG
[32] = target: 5-hydroxytryptamine receptor 2A (Mus musculus, UniProt P35363); type: functional, cell-based;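 also: CHO-K1 cells with tagged receptor and beta-arrestin; agonist potency measured as compound-induced activation of the receptor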
Mu-type opioid receptor = Mu-type opioid receptor (Homo sapiens, UniProt P35372); type: functional, cell-based;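 also: U2OS cells with beta-arrestin recruitment to OPRM1 by beta-gal complementation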
cells [33] = test: cells
Major prion protein = Major prion protein (Homo sapiens, UniProt P04156); type: functional, cell-based

**Q.** Which results are given for `CCc1nc(N)nc(N)c1-c1ccc(Cl)c(N=[N+]=[N-])c1`?
**A.** IC50 [1]: 13.4 µM (active); IC50 [2]: 24.1 µM (inactive)

**Q.** For `Cc1ccc(-n2ncc3c(SCC(N)=O)ncnc32)cc1C`, which AC50 (HeLa) is on record?
**A.** > 52 µM (inactive)

**Q.** With `COc1ccc(CCN(C)C(=O)CN2C(=O)NC3(CCCc4ccccc43)C2=O)cc1OC` (centres undefined) as the compound, how does the IC50 [3] read?
**A.** > 122 µM (inactive)

**Q.** And the IC50 [4]?
**A.** > 122 µM (inactive)

**Q.** With `O=C(Nc1nc2ccsc2c(=O)s1)c1ccc(F)cc1` as the compound, how does the IC50 [1] read?
**A.** 11 µM (active)

**Q.** What about the IC50 [2] of the same compound?
**A.** 32 µM (inactive)

**Q.** And the IC50 [5]?
**A.** 5.11 µM (active)

**Q.** Which AC50 [6] does the source give for `CN(C(=O)C12CC3CC(CC(C3)C1)C2)C1CCS(=O)(=O)C1` (centres undefined) here?
**A.** 1.42 µM (active)

**Q.** Which AC50 [7] does the source give for `COc1cc(/C=c2\sc3n(c2=O)C(c2ccccc2)C(c2ccccc2)=NN=3)ccc1O` (centres undefined) here?
**A.** 38.5 µM (active)

**Q.** And the IC50 [8]?
**A.** 19.7 µM (active)

**Q.** What about the AC50 [9] of the same compound?
**A.** 4.58 µM (active)

**Q.** And the IC50 [10]?
**A.** 57.3 µM (active)

**Q.** Which IC50 (Interleukin-8) does the source give for `Cc1ccc(-c2onc3ccc(C(=O)/C=C/N(C)C)cc23)cc1` here?
**A.** 17.9 µM (inactive)

**Q.** And the AC50 [11]?
**A.** 4.11 µM (active)

**Q.** What does the source list for `COc1ccccc1C#Cc1ccc([C@H]2[C@H](C#N)N(C(=O)C3CC3)[C@H]2CO)cc1`?
**A.** AC50 [12]: 0.698 µM (active); AC50 [13]: 15.1 µM (active); AC50 [14]: 10.7 µM (active); AC50 (Paired box protein Pax-8): 6.37 µM (active); AC50 [15]: 1.68 µM (active)

**Q.** Which results are given for `O=C1NC[C@H](Cc2ccccc2)N(C[C@H]2CCCN2C[C@H](Cc2ccccc2)N2C[C@H](Cc3ccc(O)cc3)N(CC3CCCCCC3)C(=O)C2=O)C1=O`?
**A.** IC50 [8]: 11.6 µM (active); IC50 [10]: 37.5 µM (active)

**Q.** With `COc1cccc(C#Cc2ccc([C@H]3[C@@H](CO)N(C(=O)C4CCCC4)[C@H]3C#N)cc2)c1` as the compound, how does the AC50 [16] read?
**A.** 0.00447 µM (active)

**Q.** And the AC50 [17]?
**A.** 0.997 µM (active)

**Q.** What about the AC50 [18] of the same compound?
**A.** 17 µM (active)

**Q.** What about the AC50 [19] of the same compound?
**A.** 37.9 µM (active)

**Q.** What about the AC50 [20] of the same compound?
**A.** 17.8 µM (active)

**Q.** And the AC50 [21]?
**A.** 30.8 µM (active)

**Q.** What about the AC50 [22] of the same compound?
**A.** 0.212 µM (active)

**Q.** What about the AC50 [23] of the same compound?
**A.** > 39 µM (inactive)

**Q.** What about the AC50 [24] of the same compound?
**A.** 0.409 µM (active)

**Q.** And the AC50 [25]?
**A.** 0.454 µM (active)

**Q.** And the AC50 [26]?
**A.** 20 µM (active)

**Q.** What about the AC50 [27] of the same compound?
**A.** 5.77 µM (active)

**Q.** What about the AC50 (Paired box protein Pax-8) of the same compound?
**A.** 3.15 µM (active)

**Q.** And the AC50 [28]?
**A.** 30.1 µM (active)

**Q.** With `O=C(CN1CCC(c2nc3ccccc3s2)CC1)NCc1cccs1` as the compound, how does the EC50 [29] read?
**A.** > 30 µM (not active)

**Q.** And the IC50 (Galanin receptor type 3)?
**A.** 1.39 µM (active)

**Q.** And the EC50 [30]?
**A.** 0.646 µM (active)

**Q.** And the EC50 (cells [31])?
**A.** > 29.9 µM (inactive)

**Q.** Which results are given for `Fc1ccc(F)c(CN2CCN(c3ncccn3)CC2)c1`?
**A.** EC50 [32]: 0.323 µM (active); EC50 (Mu-type opioid receptor): 92.4 µM (inactive)

**Q.** What does the source list for `CC(C)c1nc(SCC(=O)Nc2nccs2)c2ccccc2n1`?
**A.** IC50 (cells [33]): > 138 µM (inactive); IC50 (Major prion protein): 2.4 µM (active)

— ChEMBL document CHEMBL1201862, “PubChem BioAssay data set” (2004)
